Assay results from paper PMC3273469, “BACE1 Inhibition Induces a Specific Cerebrospinal Fluid β-Amyloid Pattern That Identifies Drug Effects in the Central Nervous System” (PLoS ONE, 2012).

Molecular target: BACE1 (Homo sapiens, UniProt P56817)
Test: Cellular Aβ[…] secretion ELISA (SH-SY5Y APP695wt cells); IP-MS Aβ pattern
Format: cell-based

BACE1, sequence (P56817 46-501): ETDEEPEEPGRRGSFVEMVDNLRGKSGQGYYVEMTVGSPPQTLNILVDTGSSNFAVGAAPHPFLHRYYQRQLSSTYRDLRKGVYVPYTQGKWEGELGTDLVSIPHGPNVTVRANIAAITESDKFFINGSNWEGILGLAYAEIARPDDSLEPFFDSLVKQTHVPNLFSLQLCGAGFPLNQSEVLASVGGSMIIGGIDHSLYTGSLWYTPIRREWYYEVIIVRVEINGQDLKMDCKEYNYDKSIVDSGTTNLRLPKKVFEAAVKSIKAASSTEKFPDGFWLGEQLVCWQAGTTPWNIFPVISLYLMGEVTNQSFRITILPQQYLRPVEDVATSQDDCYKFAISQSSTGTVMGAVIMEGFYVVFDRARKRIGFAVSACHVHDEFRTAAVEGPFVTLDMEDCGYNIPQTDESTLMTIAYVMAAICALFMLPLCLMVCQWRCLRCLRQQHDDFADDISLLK

In the case of AZ-20, the IC50 is reported as 8.2 ± 1.4 nM.
